Experimental data: ChEMBL document CHEMBL5055668 (J Med Chem, 2021)
pKd: −log10 of the molar value. The source made the active and inactive calls. No cut-off for these calls is given here.

What was measured:
MC-38 [1] = assay: Antitumor activity against mouse MC38 cells allografted in C57BL6 mouse assessed as decrease in Arg1 mRNA expression at 10 to 20 mg/kg, po administered daily for 2 weeks by qPCR analysis; type: functional, organism-based; conditions: dose 10-20 mg/kg
MC-38 [2] = assay: Antitumor activity against mouse MC38 cells allografted in C57BL6 mouse assessed as decrease in chil3 mRNA expression at 10 to 20 mg/kg, po administered daily for 2 weeks by qPCR analysis; type: functional, organism-based; conditions: dose 10-20 mg/kg
THP-1 [3] = assay: Induction of conversion of M2-macrophages to the M1 phenotype in CM of HCT116 cells treated […]-differentiated human THP-1 cells assessed as down regulation of Retnla mRNA expression at 30 to 100 nM incubated for 24 hrs by qPCR analysis; type: functional, cell-based; conditions: dose 30-100 nM
MC-38 [4] = assay: Antitumor activity against mouse MC38 cells allografted in C57BL6 mouse assessed as increase in Nos2 mRNA expression at 10 to 20 mg/kg, po administered daily for 2 weeks by qPCR analysis; type: functional, organism-based; conditions: dose 10-20 mg/kg
Mus musculus [5] = assay: Toxicity in C57BL/6 mouse allografted with mouse MC38 cells assessed as weight loss at 5 to 20 mg/kg, po administered every day for 2 weeks; type: organism-based, MC-38; conditions: in vivo, 336 h, dose 5-20 mg/kg
Mus musculus [6] = assay: Toxicity in C57BL/6 mouse allografted with mouse MC38 cells assessed as spleen damage at 5 to 20 mg/kg, po administered every day for 2 weeks by histopathological analysis; type: organism-based, MC-38; conditions: in vivo, 336 h, dose 5-20 mg/kg
THP-1 [7] = assay: Induction of conversion of M2-macrophages to the M1 phenotype in CM of HCT116 cells treated […]-differentiated human THP-1 cells assessed as upregulation of Il12 mRNA expression at 30 to 100 nM incubated for 24 hrs by qPCR analysis; type: functional, cell-based; conditions: dose 30-100 nM
[8] = target: T1, Macrophage colony-stimulating factor 1 receptor (Mus musculus) (UniProt P09581); assay: Inhibition of CSF-1R signaling pathway in C57BL/6 mouse BMDM cells assessed as reduction in M-CSF induced CSF-1R phosphorylation preincubated for 12 hrs followed by M-CSF stimulation for 30 mins by Western blot analysis; type: cell-based; conditions: dose 100.0 nM
T1 sequence (whole entry): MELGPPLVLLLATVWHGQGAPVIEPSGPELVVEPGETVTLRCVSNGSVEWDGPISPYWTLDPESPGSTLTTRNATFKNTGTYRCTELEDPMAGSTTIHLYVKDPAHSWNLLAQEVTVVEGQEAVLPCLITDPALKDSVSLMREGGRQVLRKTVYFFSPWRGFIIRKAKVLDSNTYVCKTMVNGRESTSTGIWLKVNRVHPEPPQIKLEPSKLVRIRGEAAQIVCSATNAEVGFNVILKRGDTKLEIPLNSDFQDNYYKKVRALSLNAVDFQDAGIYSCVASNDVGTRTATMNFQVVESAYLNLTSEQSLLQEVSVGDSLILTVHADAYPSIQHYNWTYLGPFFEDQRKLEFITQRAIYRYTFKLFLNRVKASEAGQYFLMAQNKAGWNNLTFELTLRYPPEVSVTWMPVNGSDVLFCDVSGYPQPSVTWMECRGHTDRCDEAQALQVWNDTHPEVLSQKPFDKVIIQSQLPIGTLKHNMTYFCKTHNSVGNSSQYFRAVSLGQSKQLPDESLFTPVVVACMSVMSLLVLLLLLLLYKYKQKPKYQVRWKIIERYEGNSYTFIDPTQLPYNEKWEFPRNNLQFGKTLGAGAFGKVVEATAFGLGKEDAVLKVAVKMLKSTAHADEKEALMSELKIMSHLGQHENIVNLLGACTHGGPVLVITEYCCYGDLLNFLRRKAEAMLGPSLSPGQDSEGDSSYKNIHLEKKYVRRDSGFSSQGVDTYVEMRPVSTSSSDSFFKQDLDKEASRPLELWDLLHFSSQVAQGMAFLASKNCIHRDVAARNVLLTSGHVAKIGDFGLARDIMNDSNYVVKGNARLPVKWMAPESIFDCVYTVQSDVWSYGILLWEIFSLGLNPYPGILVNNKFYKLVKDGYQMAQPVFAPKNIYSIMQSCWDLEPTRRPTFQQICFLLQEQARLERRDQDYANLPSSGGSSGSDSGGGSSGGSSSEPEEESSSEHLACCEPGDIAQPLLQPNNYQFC

THP-1 [9] = assay: Induction of conversion of M2-macrophages to the M1 phenotype in CM of HCT116 cells treated […]-differentiated human THP-1 cells assessed as upregulation of Nos2 mRNA expression at 30 to 100 nM incubated for 24 hrs by qPCR analysis; type: functional, cell-based; conditions: dose 30-100 nM
MC-38 [10] = assay: Antitumor activity against mouse MC38 cells allografted in C57BL6 mouse assessed as increase in Il6 mRNA expression at 10 to 20 mg/kg, po administered daily for 2 weeks by qPCR analysis; type: functional, organism-based; conditions: dose 10-20 mg/kg
MC-38 [11] = assay: Induction of conversion of M2-macrophages to the M1 phenotype in CM of MC38 cells treated C57BL/6 mouse BMDM cells transfected with CSF1R shRNA2 assessed as decrease in Tnf mRNA expression measured after 24 hrs by qPCR analysis; type: functional, cell-based
BMDM [12] = assay: (§1) Induction of conversion of M2-macrophages to the M1 phenotype in CM of MC38 cells treated C57BL/6 mouse BMDM cells assessed as down regulation of Il10 mRNA expression at 30 to 100 nM preincubated with culture medium of MC38 cells for 24 hrs followed by compound addition and measured after 24 hrs by qPCR analysis; type: functional, cell-based; conditions: dose 30-100 nM
BMDM [13] = assay: as §1, with “Vegf” for “Il10”; type: functional, cell-based; conditions: dose 30-100 nM
Mus musculus [14] = assay: Toxicity in C57BL/6 mouse allografted with mouse MC38 cells assessed as lung damage at 5 to 20 mg/kg, po administered every day for 2 weeks by histopathological analysis; type: organism-based, MC-38; conditions: in vivo, 336 h, dose 5-20 mg/kg
THP-1 [15] = assay: Induction of conversion of M2-macrophages to the M1 phenotype in CM of HCT116 cells treated […]-differentiated human THP-1 cells assessed as down regulation of Chil3 mRNA expression at 30 to 100 nM incubated for 24 hrs by qPCR analysis; type: functional, cell-based; conditions: dose 30-100 nM
HCT-116 [16] = assay: Antiproliferative activity against human HCT-116 cells assessed as reduction in cell viability at 10 to 100 nM incubated for 24 hrs by CCK-8 assay; type: functional, cell-based; conditions: dose 10-100 nM
BMDM [17] = assay: as §1, with “upregulation” for “down regulation”, “[…]” for “Il10”; type: functional, cell-based; conditions: dose 30-100 nM
HCT-116 [18] = assay: Antitumor activity against human HCT-116 cells xenografted in nude BALB/c mouse assessed as tumor growth inhibition at 5 to 20 mg/kg, po administered daily for 2 weeks; type: functional, organism-based; conditions: dose 5-20 mg/kg
BMDM [19] = assay: as §1, with “upregulation” for “down regulation”, “Nos2” for “Il10”; type: functional, cell-based; conditions: dose 30-100 nM
[20] = target: T2, Macrophage colony-stimulating factor 1 receptor (Mus musculus, UniProt P09581); assay: Binding affinity to CSF-1R in C57BL/6 mouse BMDM cells assessed as dissociation constant by SPR assay
T2 sequence (P09581 whole entry): T1 sequence (whole entry)

inhibition [8]: Dose-dependent effect
pKd [20]: 8.47
Compound: Cc1[nH]c(/C=C2\C(=O)Nc3cc(NC(=O)Nc4cc(C(C)(C)C)on4)ccc32)c(C)c1NC(=O)CN1CCN(C)CC1
Activity (MC-38 [1]): Active
Activity (MC-38 [2]): Active
Activity (THP-1 [3]): Active
Activity (MC-38 [4]): Active
Activity (Mus musculus [5]): Non-Toxic
Activity (Mus musculus [6]): Non-Toxic
Activity (THP-1 [7]): Active
Activity (THP-1 [9]): Active
Activity (MC-38 [10]): Active
Activity (MC-38 [11]): Active
Activity (BMDM [12]): Active
Activity (BMDM [13]): Active
Activity (Mus musculus [14]): Non-Toxic
Activity (THP-1 [15]): Active
Activity (HCT-116 [16]): inactive
Activity (BMDM [17]): Active
Activity (HCT-116 [18]): inactive
Activity (BMDM [19]): Active
